Values of other authors, collected in patent US10780114B2, “Therapeutic agent for skin wound or rough skin” (JFE MINERAL COMPANY, LTD., priority 2015, dated 2020).

Experiments:
skin = conditions: in vivo

## [Zn+2] [zinc ions]
skin
  Zinc ion level leading to increased inflammatory cell infiltration in skin and remarkably delayed reepithelization: not less than 15 mmol/L
fibroblast
  Zinc ion concentration that does not exhibit toxicity to a fibroblast: not more than 500 μmol/L
